Literature values, collected in US20020103240A1, “Process for resolution of 2-amino-6-propylamino-4,5,6,7-tetrahydrobenzthiazole and compounds therefor” (priority 2000, published 2002).

Conditions: (S) isomer compared with (R) enantiomer; no test described

CCCN[C@H]1CCc2nc(N)sc2C1 [pramipexole, (S)-2-amino-6-propylamino-4,5,6,7-tetrahydrobenzothiazole]
dopaminergic activity of the (S) isomer relative to the (R) enantiomer: twice as high
